Laboratory results taken from patent US20090131462A1, “Fungicidally Active Agent” (BASF AKTIENGESELLSCHAFT, priority 2005, published 2009).

Test system: Pyrenophora teres
Test: Activity against net blotch of barley caused by Pyrenophora teres, 2-day protective application
Type: in vivo
Settings: individual active compound, barley seedlings cultivar Hanna, inoculated 48 hours after spraying, evaluated after 6 days
Method: The active compounds were used either as a commercial formulation or employed as a stock solution. The stock solution was prepared from 25 mg of active compound which had been made up to 10 ml using a mixture of acetone and/or DMSO as solvent and the emulsifier Uniperol® EL (wetting agent having emulsifying and dispersing action based on ethoxylated alkylphenols) in a volume ratio of solvent to emulsifier of 99:1. The volume was then made up to 100 ml using water.
Evaluation was carried out by visually determining the infected leaf areas in %. These percentages were converted into efficacies in % of the untreated control. At an efficacy of 0, the infection of the treated plants corresponds to that of the untreated control plants; at an efficacy of 100, the treated plants are not infected.
The expected efficacies for active compound combinations were determined using Colby's formula (Colby, S. R., “Calculating synergistic and antagonistic responses of herbicide combinations”, Weeds, 15, pp. 20-22, 1967) and compared to the observed efficacies.
Colby's formula: E=x+y−xy/100
E expected efficacy, expressed in % of the untreated control, when using the mixture of the active compounds A and B at the concentrations a and b x efficacy, expressed in % of the untreated control, when using the active compound A at the concentration a y efficacy, expressed in % of the untreated control, when using the active compound B at the concentration b Activity against net blotch of barley caused by Pyrenophora teres, 2-day protective application Leaves of potted barley seedlings of the cultivar “Hanna” were sprayed to runoff point with an aqueous suspension having the concentration of active compound stated below. 48 hours after the spray coating had dried on, the test plants were inoculated with an aqueous spore suspension of Pyrenophora teres (synonym Drechslera teres), the net blotch pathogen. […] After 6 days, the extent of the development of the disease was determined visually in % infection of the total leaf area.

Compound	Efficacy (4 ppm in the spray liquor, % of the untreated control)	Efficacy (concentration in the spray liquor printed as 0 ppm)	Efficacy (250 ppm in the spray liquor)
CC(C)CC(C)c1sccc1NC(=O)c1cn(C)nc1C(F)(F)F (stereo not drawn) [compound A, N-[2-(1,3-dimethylbutyl)-3-thienyl]-1-methyl-3-(trifluoromethyl)-1H-pyrazole-4-carboxamide]	22%	0.5%	
metiram			0%
